SMILES: O=c1cc[nH]c(=O)[nH]1
- solubility (mole fraction) (in ethanol, 283.15 K): 7.7e-05
- solubility (mole fraction) (in ethanol, 288.15 K): 9.1e-05
- solubility (mole fraction) (in ethanol, 293.15 K): 0.000113
- solubility (mole fraction) (in ethanol, 298.15 K): 0.000135
- solubility (mole fraction) (in ethanol, 303.15 K): 0.000166
- solubility (mole fraction) (in ethanol, 308.15 K): 0.000212
- solubility (mole fraction) (in ethanol, 313.15 K): 0.000248
- solubility (mole fraction) (in ethanol, 318.15 K): 0.000296
- solubility (mole fraction) (in isopropanol, 283.15 K): 6.6e-05
- solubility (mole fraction) (in isopropanol, 288.15 K): 7.6e-05
- solubility (mole fraction) (in isopropanol, 293.15 K): 0.000105
- solubility (mole fraction) (in isopropanol, 298.15 K): 0.00014
- solubility (mole fraction) (in isopropanol, 303.15 K): 0.000169
- solubility (mole fraction) (in isopropanol, 308.15 K): 0.000216
- solubility (mole fraction) (in isopropanol, 313.15 K): 0.000245
- solubility (mole fraction) (in isopropanol, 318.15 K): 0.000281
- solubility (mole fraction) (in methanol, 283.15 K): 0.000152
- solubility (mole fraction) (in methanol, 288.15 K): 0.000166
- solubility (mole fraction) (in methanol, 293.15 K): 0.000206
- solubility (mole fraction) (in methanol, 298.15 K): 0.000253
- solubility (mole fraction) (in methanol, 303.15 K): 0.000307
- solubility (mole fraction) (in methanol, 308.15 K): 0.000362
- solubility (mole fraction) (in methanol, 313.15 K): 0.000414
- solubility (mole fraction) (in methanol, 318.15 K): 0.000519
- solubility (mole fraction) (in water, 283.15 K): 0.000166
- solubility (mole fraction) (in water, 288.15 K): 0.000209
- solubility (mole fraction) (in water, 293.15 K): 0.000264
- solubility (mole fraction) (in water, 298.15 K): 0.000332
- solubility (mole fraction) (in water, 303.15 K): 0.00042
- solubility (mole fraction) (in water, 308.15 K): 0.000513
- solubility (mole fraction) (in water, 313.15 K): 0.000613
- solubility (mole fraction) (in water, 318.15 K): 0.000738

From BigSolDB 2.1
